Here are results for two compounds from patent publication US9994617B2, “Modulation of structured polypeptide specificity” (BICYCLE THERAPEUTICS LIMITED, priority 2011, dated 2018).

Numbered stars: 1 amine (or outer) side, 2 acyl side, 3 side chain; on linkers, the order of the positions; unused ones are H or OH. Bridge positions count the residues as written; N and C are the ends. Peptide text beside a SMILES is read from it. TBMB = c1c(C[*:1])cc(C[*:3])cc1C[*:2]

Data set [1] concerns the target Human factor XIa (hfXIa) (Homo sapiens, UniProt P03951). Particulars: highest concentration tested (10 μM), Heinis et al. 2009; cited from earlier work.
Data set [2] addresses monkey plasma kallikrein (mPK) (Macaca mulatta, UniProt A0A1D5Q7U7). In words: Inhibition of monkey plasma kallikrein.
Data set [3] in a line: Rapid plasma stability profiling, method 1 (MALDI-TOF), rat plasma. Type of data set: in vitro ADME. Particulars: 35% rat plasma, 37 deg C, method 1, qualitative; listed as N-methylation of Arg5. On the procedure: A rapid plasma stability profiling assay was developed that employed mass spectrometric detection (MALDI-TOF, Voyager DE, Applied Biosystems) of the parent mass, until the time when the parent peptide mass was no longer observable. Specifically, 200 uM of peptide was incubated in the presence of 35% rat or human plasma (Sera labs, using citrate as anticoagulant) at 37 deg C, which was supplemented with 1×PBS (derived from a 10×PBS Stock, Sigma). At various time points (i.e. t=0, 3, 24 hrs, henceafter daily up to 10 days), 2 uL of sample was added to 18 uL of 30 mM ammonium bicarbonate in a 1:1 mixture of acetonitrile:H2O. Samples were frozen at −80 deg C until the time of analysis. For mass spectrometric analysis that determines the approximate detection window of the peptide, the acetonitrile:H2O-diluted sample of a given time point was spotted directly (0.7 uL) onto the MALDI plate. Matrix (alpha-cyanocinnamic acid, Sigma, prepared as a saturated solution in 1:1 acetonitrile:water containing 0.1% trifluoroacetic acid) was layered over the sample (1 uL). At a similar laser intensity setting on the MALDI TOF, the time could then be determined until parent peptide was no longer detectable. It should be noted that this is a qualitative assay serves to detect relative changes in plasma stability.

Data set [4] concerns the target human plasma kallikrein (hPK) (Homo sapiens, UniProt P03952). As to the kind of experiment: Enzyme inhibition assay, human plasma kallikrein.

Sequence of monkey plasma kallikrein (mPK) (A0A1D5Q7U7 391-638): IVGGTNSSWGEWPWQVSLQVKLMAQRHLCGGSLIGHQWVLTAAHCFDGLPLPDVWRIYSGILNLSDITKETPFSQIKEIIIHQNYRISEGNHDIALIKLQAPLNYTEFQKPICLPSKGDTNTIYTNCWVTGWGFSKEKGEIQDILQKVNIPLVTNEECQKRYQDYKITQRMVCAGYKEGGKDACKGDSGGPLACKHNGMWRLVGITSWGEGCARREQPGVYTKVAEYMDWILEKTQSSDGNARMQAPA
Sequence of Human factor XIa (hfXIa) (P03951 388-625 limits assumed): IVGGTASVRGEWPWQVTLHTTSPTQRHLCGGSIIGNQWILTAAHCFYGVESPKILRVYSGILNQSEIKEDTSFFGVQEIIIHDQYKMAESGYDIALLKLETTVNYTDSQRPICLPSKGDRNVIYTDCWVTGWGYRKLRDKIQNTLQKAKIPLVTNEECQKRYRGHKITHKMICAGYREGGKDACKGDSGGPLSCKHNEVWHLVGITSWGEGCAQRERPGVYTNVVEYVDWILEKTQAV
Sequence of Human factor XIa (hfXIa) (P03951 19-387 partner limits assumed): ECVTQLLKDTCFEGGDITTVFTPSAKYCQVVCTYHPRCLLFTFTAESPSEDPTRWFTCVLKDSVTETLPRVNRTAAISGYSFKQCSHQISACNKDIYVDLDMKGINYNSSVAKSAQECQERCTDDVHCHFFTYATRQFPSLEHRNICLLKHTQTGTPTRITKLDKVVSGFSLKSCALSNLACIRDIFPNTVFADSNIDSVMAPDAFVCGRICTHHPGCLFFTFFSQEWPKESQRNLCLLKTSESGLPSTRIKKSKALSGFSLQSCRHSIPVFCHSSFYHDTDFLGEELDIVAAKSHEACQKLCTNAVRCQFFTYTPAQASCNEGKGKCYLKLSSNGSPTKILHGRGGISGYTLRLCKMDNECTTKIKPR

In general, Ki refers to the dissociation constant of the complex between target and ligand, obtained from inhibition or displacement. As for `CC(C)C[C@@H]1NC(=O)[C@H](C)NC(=O)[C@H](CCC(=O)O)NC(=O)[C@H](CC(=O)O)NC(=O)[C@H](C)NC(=O)[C@@H]2CCCN2C(=O)[C@@H]2CSCc3cc(cc(c3)CSC[C@@H](C(=O)NCC(N)=O)NC1=O)CSC[C@H](NC(=O)[C@H](C)N)C(=O)N[C@@H](CO)C(=O)N[C@@H](CC(=O)O)C(=O)N[C@@H](CCCNC(=N)N)C(=O)N[C@@H](Cc1ccccc1)C(=O)N[C@@H](CCCNC(=N)N)C(=O)N[C@@H](CC(N)=O)C(=O)N2` [PK15] (H-ACSDRFRNCPADEALCG-NH2; linker 2-9-16 via TBMB), the “inhibition of factor XIa (hfXIa)” value in data set [1] was “did not inhibit”. Also, affinity in data set [2] was put at a Ki of 2.9 nM.
On to `CC(=O)N[C@H]1CSCc2cc3cc(c2)CSC[C@H](NC(=O)[C@H](CCCNC(=N)N)N(C)C(=O)[C@H](C)NC(=O)[C@@H]2CCCN2C(=O)[C@H](Cc2c[nH]c4ccccc24)NC(=O)[C@H](CO)NC1=O)C(=O)N[C@@H](CC(C)C)C(=O)N[C@@H](Cc1c[nH]cn1)C(=O)N[C@@H](CCC(N)=O)C(=O)N[C@@H](CC(=O)O)C(=O)N[C@@H](CC(C)C)C(=O)N[C@H](C(N)=O)CSC3` [Ac-(06-34-18) NMeArg5], for which the “Observable in rat plasma, for days” value in data set [3] is given as “exceeds the assay time”. The compound further had a Ki in data set [4] of 3.5 nM. Also, the “fold reduction in affinity to kallikrein compared to wildtype peptide” value in data set [4] (versus Ac-06-34-18(TMB)-NH2) came out at 20 fold.
